# Measurements: patent US20100184820A1, “COMBINATIONS COMPRISING STAUROSPORINES” (priority 2006, published 2010)
# pEC50, pIC50: −log10 of the molar value. Where two headings read alike, the source gives them in different places.
# Legend:
# Assay type in all cases: cell-based, human
# [1] = system: HMC-1.1 cells; assay: induction of apoptosis (percentage of apoptotic cells on Wright-Giemsa-stained cytospin slides)
# Procedure: (§1) Scramble control represents a mixture of A (adenine), G (guanine), T (thymine), and C (cytosine) bases, the resulting preparation containing an equimolar mixture of oligonucleotides. […] For transfection, 800,000 cells are seeded in 75 cm^2 culture plates at 37° C. for 24 hours. Mcl-1-ASO and Mcl-1 siRNA are complexed with Lipofectin-Reagent (Invitrogen) in RPMI 1640 medium essentially as described. […] After exposure to ASO, cells are washed and cultured in RPMI 1640 medium with 10% FCS in the presence or absence of various concentrations of TK inhibitors for another 12 hours before being analyzed. siRNA-treated cells are kept in control medium for 12 hours (without TK inhibitors) before being examined for the percentage of apoptotic cells and Western blotting.
# (§2) Thereafter, 1 μCi ^3H-thymidine is added to each well. Sixteen hours later, cells are harvested on filter membranes (Packard Bioscience, Meriden, Conn.) in a Filtermate 196 harvester (Packard Bioscience). Filters are then air-dried, and the bound radioactivity is measured in a β-counter (Top-Count NXT, Packard Bioscience). All experiments are performed in triplicates. Cell viability is determined by the trypan blue exclusion test. The percentage of apoptotic cells is determined on Wright-Giemsa-stained cytospin slides employing conventional cytomorphologic criteria.
# (§3) METHOD: Effects of mcl-1 antisense oligonucleotides on Mcl-1 protein expression and cell viability in HMC-1.1 and HMC-1.2 cells are analyzed. […] Western Blot analysis of Mcl-1 expression is performed using an anti-Mcl-1 antibody. β-Actin served as loading control. Evaluation of non-viable (trypan blue-positive) cells is expressed as percentage of all nucleated cells. Numbers (%) of apoptotic cells. Results represent the mean±S.D. from 3 independent experiments.
# (§4) METHOD: [001] Effects of mcl-1-siRNA are analyzed in neoplastic mast cells on expression of Mcl-1 protein and cell viability in HMC-1.1 cells and HMC-1.2 cells. Cells are left untransfected (Control) or are transfected with either an mcl-1-specific siRNA (mcl-1-siRNA; 200 nM) or a luciferase-specific (control)-siRNA (luc-siRNA; 200 nM) as described herein. Mcl-1 protein expression is determined by Western blotting using a polyclonal anti-Mcl -1 antibody. Equal loading is confirmed by probing for β-Actin. Cell viability is analyzed by recording the percentage (%) of apoptotic cells. Results represent the mean±S.D. from 3 independent experiments in each set of experiments.
# (§5) Mcl-1 protein expression is determined by Western blotting using a polyclonal anti-Mcl-1 antibody. Equal loading is confirmed by probing for β-Actin. Cell viability is analyzed by recording the percentage (%) of apoptotic cells.
# [2] = system: HMC-1.2 cells; assay: as above
# Procedure: as §1, §2, §3, §4, §5
# [3] = system: HMC-1.1 cells; assay: 3H-thymidine incorporation assay; settings: for cell growth / proliferation (in words): HMC-1.1
# Procedure: (§6) The human mast cell line HMC-1 generated from leukemic cells in a patient with MCL48 are obtained (Mayo Clinic, Rochester, Minn.). […] HMC-1 cells are re-thawed from an original stock every 4 to 8 weeks and passaged weekly. As control of ‘phenotypic stability’, HMC-1 cells are periodically checked for expression of KIT and the down-modulating effect of IL-4 (100 U/ml, 48 hours).
# (§7) In a separate set of experiments, HMC-1 cells are transfected with mcl-1-specific ASO before being exposed to inhibitory drugs (see below). […] After exposure to drugs or/and ASO, cells are subjected to ^3H-thymidine uptake experiments, analysis of cell viability and apoptosis, or Western blotting.
# as §2, with “Sixteen hours later, cells are harvested on filter membranes (Packard Bioscience, Meriden, Conn.) in a Filtermate 196 harvester (Packard Bioscience).” left out
# [4] = system: HMC-1.2 cells; assay: 3H-thymidine incorporation assay
# Procedure: as §6, §7
# as §2, with “Sixteen hours later, cells are harvested on filter membranes (Packard Bioscience, Meriden, Conn.) in a Filtermate 196 harvester (Packard Bioscience).” left out
# [5] = system: Mcl-1 protein; assay: Western blot analysis of Mcl-1 protein expression in HMC-1.2 cells; settings: for expression of the Mcl-1 protein after targeted drugs: HMC-1.2 exhibiting KIT D816V, PKC412 1-10 μM, 2CdA 10-100 ng/ml, nilotinib and imatinib over the dose range tested
# Procedure: (§8) Western blot analysis is performed as described previously using lysates of HMC-1 cells and a polyclonal rabbit anti-human Mcl-1 antibody (Santa Cruz Biotechnology, Santa Cruz, Calif.). In brief, cells are lysed in phosphate buffered saline (PBS) containing 1% Triton-X-100 (Sigma, St. Louis, Mo.). Proteins are separated under reducing conditions by SDS-polyacrylamide gel electrophoresis and transferred to nitrocellulose membranes (Protran, Schleicher & Schuell, Dassel, Germany) in transfer buffer. Membranes are then exposed to anti-mouse/anti-rabbit IgG (BM Chemiluminescence Western blotting Kit, Roche). […] Chemiluminescence is detected by exposure to a Biomax MS film (Kodak).
# as §3, §4, §5
# [6] = system: Mcl-1 protein; assay: Western blot analysis of Mcl-1 protein expression in HMC-1.1 cells; settings: for expression of the Mcl-1 protein after targeted drugs: HMC-1.1 lacking KIT D816V, PKC412 0.3-10 μM, nilotinib 10-300 nM, imatinib 30-300 nM, 2CdA up to 1,000 ng/ml
# Procedure: as §8, §3, §4, §5
# [7] = system: HMC-1.1 cells; assay: combination of mcl-1 ASO and targeted drugs, combination index (CalcuSyn); settings: drug combined with mcl-1 ASO
# Procedure: To determine the level of significance in differences found in the evaluation of data, the paired student t-test is applied.
# Results are expressed as percent of control (=scramble control) without targeted drug and represent the mean±SD of 3 independent experiments are analyzed. […] Results represent the mean±SD of 3 independent experiments. […] A combination index (CI) less than 1 indicates synergism.
# [8] = Homo sapiens, incubated with drugs for 24 hours
"EC50 [1, 8]","EC50 [2, 8]","pEC50 [1, 8]","pEC50 [2, 8]",Compound,induction of apoptosis (in words) ([1]; HMC-1.1),expression of the Mcl-1 protein after targeted drugs [5],expression of the Mcl-1 protein after targeted drugs [6],cell growth / proliferation (in words) [3],further results
> 1 µg/mL,> 1 µg/mL,,,"Nc1nc(Cl)nc2c1ncn2[C@H]1C[C@H](O)[C@@H](CO)O1 [2CdA, 2-chlorodeoxyadenosine]",no significant effect,,,,"IC50 ([3]; Homo sapiens, 24 hours of incubation with drug, read-out: 3H-thymidine uptake (IC50) HMC-1.1): 0.1 to 0.3 µg/mL; IC50 ([4]; Homo sapiens, 24 hours of incubation with drug, read-out: 3H-thymidine uptake (IC50) HMC-1.2): 0.005 to 0.02 µg/mL"
,,,,Cc1ccc(NC(=O)c2ccc(CN3CCN(C)CC3)cc2)cc1Nc1nccc(-c2cccnc2)n1 [Imatinib],induce apoptosis,no significant effects,down-regulate expression,,
,,,,"CO[C@@H]1[C@H](N(C)C(=O)c2ccccc2)C[C@H]2O[C@]1(C)n1c3ccccc3c3c4c(c5c6ccccc6n2c5c31)C(=O)NC4 [PKC412, N-[(9S,10R,11R,13R)-2,3,10,11,12,13-hexahydro-10-methoxy-9-methyl-1-oxo-9,13-epoxy-1H,9H-diindolo[1,2,3-gh:3′,2′,1′-lm]pyrrolo[3,4-j][1,7]benzodiazonin-11-yl]-N-methylbenzamide]",induce apoptosis,decreased the expression,down-regulate expression,reduce cell growth,"cell growth / proliferation (in words) ([4]; HMC-1.2, pharmacologically relevant concentrations): counteract cell growth"
,,7.10 to 7.52,< 5.00,"Cc1cn(-c2cc(NC(=O)c3ccc(C)c(Nc4nccc(-c5cccnc5)n4)c3)cc(C(F)(F)F)c2)cn1 [nilotinib, 4-methyl-3-[[4-(3-pyridinyl)-2-pyrimidinyl]amino]-N-[5-(4-methyl-1H-imidazol-1-yl)-3-(trifluoromethyl)phenyl]benzamide]",induce apoptosis,no significant effects,down-regulate expression,reduce cell growth,"drug interaction with mcl-1 ASO (synergism, combination index less than 1) [7]: only synergistic in HMC-1.1 cells; pIC50 ([3]; Homo sapiens, 24 hours of incubation with drugs or transfection with ASO, read-out: 3H-thymidine uptake (IC50) HMC-1.1): 8.00 to 8.52; pIC50 ([4]; Homo sapiens, 24 hours of incubation with drugs, read-out: 3H-thymidine uptake (IC50) HMC-1.2): 5.52 to 6.00"
,,,,"mcl-1 siRNA: double-stranded mcl-1 siRNA (AAGAAACGCGGUAAUCGGACU, SEQ ID NO:8, and AGUCCGAUUACCGCGUUUCUU, SEQ ID NO:9) (chain 1 AAGAAACGCGGUAAUCGGACU; chain 2 AGUCCGAUUACCGCGUUUCUU; listed as RNA, chemistry not given here; listed as Homo sapiens)",,,,,"expression of the Mcl-1 protein ([5]; HMC-1.2, siRNA 200 nM): downregulate expression; apoptotic cells ([1]; HMC-1.1, siRNA 200 nM, 12 hours): increase in apoptotic cells; apoptotic cells ([2]; HMC-1.2, siRNA 200 nM, 12 hours): increase in apoptotic cells; expression of the Mcl-1 protein ([6]; HMC-1.1, siRNA 200 nM): downregulate expression"
